Source: US20220195481A1, “MITOCHONDRIAL RESPIROMETRY IN FROZEN SPECIMENS” (The Regents of the University of Califormia, priority 2019, published 2022)
Square brackets hold non-standard residues; d marks the D form. Peptide text beside a SMILES is read from it. Phe(ol) = N[C@H](CO)Cc1ccccc1; Aib = CC(C)(N)C(=O)O

Tests used:
[1] = tested on: frozen murine liver tissue homogenate; assay: Respirometry (oxygen consumption rate, Seahorse XF96) in frozen murine liver homogenate; settings: MAS supplemented with 100 μg/mL cytochrome c vs MAS alone; NADH and TMPD/Ascorbate injections; FIG. 3
Description: (§1) All procedures are performed at 4° C. All equipment, solutions, and consumables are pre-chilled. • 1. Re-suspend sample in 20 μL MAS buffer. Load 5 technical replicates of each condition. Leave at least 4 empty wells to determine background signal. • 2. To adhere mitochondrial particles to the bottom of the plate, centrifuge the loaded plate at 2,000×g for 5 min at 4° C. using plate carrier rotating buckets. […] After centrifugation, adjust the total volume of the wells to 150 uL by adding 130 uL MAS assay buffer per well. Supplement MAS buffer with 1-200 μg/mL cytochrome c and 1-500 μg/mL Alamethicin if maximal respiration is not reached on MAS alone. To avoid disrupting mitochondrial adherence to the bottom of the plate, add MAS using multichannel pipette pointed at a 45° angle to the top of well chamber, as instructed by the manufacturer. • 4. Incubate the plate at 37° C. in a non-CO2 incubator for 5 minutes. • 5. Insert plate into XF96 and begin assay protocol. Measure oxygen consumption rate (OCR) before and after every injection. Mix, wait, and measure times can vary between 1-7 minutes and 1-5 repetitions.
1. Homogenate was prepared from previously frozen murine liver tissue in MAS using glass/Teflon dounce homogenizer. The preparation was centrifuged at 1,000×g for 5 minutes at 4° C. and the supernatant transferred to a new tube. 2. […]

SH-SY5Y cells = assay: Respirometry (oxygen consumption rate, Seahorse XF96) in frozen SH-SY5Y cells; format: cell-based, human; settings: MAS supplemented with 10 μg/mL Alamethicin and 100 μg/mL cytochrome c vs MAS alone; FIG. 8
Description: as §1
1. SH-SY5Y cells were cultured according to ATCC instructions. 2. When the cells reached 80% confluency, they were trypsinized, counted, spun down, washed in PBS, and frozen. 3. Cells were thawed on ice and re-suspended in MAS. 4. […]

Row | Compound | respiration in frozen tissue homogenates [1] | respiration in frozen cultured human bone marrow neuroblastoma cell line (SH-SY5Y cells)
1 | cytochrome c | enhances respiration | 
2 | CC(=O)NC(C)(C)C(=O)N1CCC[C@H]1C(=O)NC(C)(C)C(=O)N[C@@H](C)C(=O)NC(C)(C)C(=O)N[C@@H](C)C(=O)N[C@@H](CCC(N)=O)C(=O)NC(C)(C)C(=O)N[C@H](C(=O)NC(C)(C)C(=O)NCC(=O)N[C@@H](CC(C)C)C(=O)NC(C)(C)C(=O)N1CCC[C@H]1C(=O)N[C@H](C(=O)NC(C)(C)C(=O)NC(C)(C)C(=O)N[C@@H](CCC(=O)O)C(=O)N[C@@H](CCC(N)=O)C(=O)N[C@H](CO)Cc1ccccc1)C(C)C)C(C)C [Alamethicin] (Ac-[Aib]P[Aib]A[Aib]AQ[Aib]V[Aib]GL[Aib]PV[Aib][Aib]EQ[Phe(ol)]) |  | Enhances Respiration
